Results: patent publication US7785577B2, “Peptides or peptidic conjugate derivatives of MSH and the use thereof for cosmetically fighting against canities” (Institut Europeen de Biologie Cellulaiare, priority 2004, dated 2010)
Non-standard residues stand in square brackets, D forms with d. Residues, ends and D or L forms follow the SMILES beside them. *: point of attachment. Palmitoyl = CCCCCCCCCCCCCCCC(=O)*; Nle = CCCC[C@H](N)C(=O)O

Target: T1, melanocortin-1 receptor MClr (Homo sapiens, UniProt Q01726)
T1 construct: The cells used to test MClr were human melanocytes; endogenous in cells; host or cells: human melanocytes
T1 sequence (Q01726 whole entry): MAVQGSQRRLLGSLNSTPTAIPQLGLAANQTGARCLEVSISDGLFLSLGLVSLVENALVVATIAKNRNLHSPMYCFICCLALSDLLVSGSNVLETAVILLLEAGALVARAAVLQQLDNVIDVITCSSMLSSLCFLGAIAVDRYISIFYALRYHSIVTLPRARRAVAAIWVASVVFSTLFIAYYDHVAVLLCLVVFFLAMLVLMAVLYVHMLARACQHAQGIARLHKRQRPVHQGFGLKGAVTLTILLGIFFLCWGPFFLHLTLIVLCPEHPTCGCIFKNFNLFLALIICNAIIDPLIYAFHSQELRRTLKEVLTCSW
Assay: Melanogenesis stimulation test: quantification of second messenger cAMP
Type: cell-based
From the text: Test: Study of the quantification of a second messenger: cAMP
When an agonist binds to this receptor, it leads to activation of a molecule, adenylate cyclase, which produces cAMP. Quantifying cAMP makes it possible to evaluate the affinity of a ligand for its receptor.
Protocol: The cells used to test MClr were human melanocytes.
EC50 is the ligand concentration giving 50% of maximum stimulation.

| SMILES | EC50 |
| --- | --- |
| CCCC[C@H](NC(C)=O)C(=O)N[C@@H](C)C(=O)N[C@@H](CCCNC(=N)N)C(=O)N[C@H](Cc1ccccc1)C(=O)N[C@@H](CCCNC(=N)N)C(=O)N[C@@H](Cc1c[nH]c2ccccc12)C(N)=O [Conjugate no. 2, Ac-Nle-Ala-Arg-DPhe-Arg-Trp-NH2] (Ac-[Nle]AR[dF]RW-NH2) | 0.6 nM |
| CCCCCCCCCCCCCCCC(=O)N[C@@H](CCCC)C(=O)N[C@@H](C)C(=O)N[C@@H](Cc1c[nH]cn1)C(=O)N[C@H](Cc1ccccc1)C(=O)N[C@@H](CCCNC(=N)N)C(=O)N[C@@H](Cc1c[nH]c2ccccc12)C(N)=O [Conjugate no. 13, Palm-Nle-Ala-His-DPhe-Arg-Trp-NH2] (Palmitoyl-[Nle]AH[dF]RW-NH2) | 1.6 nM |
